In ChEMBL document CHEMBL1201862, “PubChem BioAssay data set” (2004) one finds EC50 and AC50 data, which are given here for 40 compounds.

The nature of test [1]: Trypanosoma cruzi growth suppression in host cells – NIH3T3 host cells, beta-gal luminescence, confirmation (AID 2044).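 Further: intracellular parasites grown in NIH/3T3 mouse fibroblasts as host cells; luminescent beta-galactosidase reporter signal from transgenic T. cruzi replicating inside host cells; inhibitors lower the luminescence signal.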 The class given is functional, cell-based.
The nature of test [2]: NIH3T3 cell viability loss – ATP luminescence, mouse fibroblasts, counter-screen, dose response (AID 2010).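 Further: cells exposed to compound for about 90 hours before reading.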 In kind it is functional, cell-based.
In test [3] the target is T1, Heat shock factor protein 1 (Mus musculus, UniProt P38532).
T1 sequence (P38532 whole entry): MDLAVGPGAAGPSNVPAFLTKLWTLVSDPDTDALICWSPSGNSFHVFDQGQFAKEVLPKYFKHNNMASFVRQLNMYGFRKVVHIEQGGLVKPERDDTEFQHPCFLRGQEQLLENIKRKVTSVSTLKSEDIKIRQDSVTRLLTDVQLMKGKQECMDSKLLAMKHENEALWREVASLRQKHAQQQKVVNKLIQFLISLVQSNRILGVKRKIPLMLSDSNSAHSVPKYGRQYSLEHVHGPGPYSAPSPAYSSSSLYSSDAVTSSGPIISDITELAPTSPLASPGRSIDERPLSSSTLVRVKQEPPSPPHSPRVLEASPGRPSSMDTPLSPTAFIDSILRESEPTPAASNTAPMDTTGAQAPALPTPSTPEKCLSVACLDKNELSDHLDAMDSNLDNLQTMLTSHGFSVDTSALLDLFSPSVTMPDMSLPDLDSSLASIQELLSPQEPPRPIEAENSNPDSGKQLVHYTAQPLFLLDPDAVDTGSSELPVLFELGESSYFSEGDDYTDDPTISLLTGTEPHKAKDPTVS
Kind of test: enhancement of HSF1-driven luciferase signal – cell-based, NIH3T3, luminescence, dose retest, confirmation (AID 435004).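 Further: stress induced by proteasome inhibitor MG132 added 30 min after compound; luciferase reporter driven by HSF1 response element in NIH3T3 cells; actives raise luminescence as potentiators of the MG132 stress response.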 In kind it is functional.

The target in test [4] is T2, Replicative DNA helicase DnaB (Mycobacterium tuberculosis, UniProt P9WMR3).
T2 sequence (P9WMR3 whole entry): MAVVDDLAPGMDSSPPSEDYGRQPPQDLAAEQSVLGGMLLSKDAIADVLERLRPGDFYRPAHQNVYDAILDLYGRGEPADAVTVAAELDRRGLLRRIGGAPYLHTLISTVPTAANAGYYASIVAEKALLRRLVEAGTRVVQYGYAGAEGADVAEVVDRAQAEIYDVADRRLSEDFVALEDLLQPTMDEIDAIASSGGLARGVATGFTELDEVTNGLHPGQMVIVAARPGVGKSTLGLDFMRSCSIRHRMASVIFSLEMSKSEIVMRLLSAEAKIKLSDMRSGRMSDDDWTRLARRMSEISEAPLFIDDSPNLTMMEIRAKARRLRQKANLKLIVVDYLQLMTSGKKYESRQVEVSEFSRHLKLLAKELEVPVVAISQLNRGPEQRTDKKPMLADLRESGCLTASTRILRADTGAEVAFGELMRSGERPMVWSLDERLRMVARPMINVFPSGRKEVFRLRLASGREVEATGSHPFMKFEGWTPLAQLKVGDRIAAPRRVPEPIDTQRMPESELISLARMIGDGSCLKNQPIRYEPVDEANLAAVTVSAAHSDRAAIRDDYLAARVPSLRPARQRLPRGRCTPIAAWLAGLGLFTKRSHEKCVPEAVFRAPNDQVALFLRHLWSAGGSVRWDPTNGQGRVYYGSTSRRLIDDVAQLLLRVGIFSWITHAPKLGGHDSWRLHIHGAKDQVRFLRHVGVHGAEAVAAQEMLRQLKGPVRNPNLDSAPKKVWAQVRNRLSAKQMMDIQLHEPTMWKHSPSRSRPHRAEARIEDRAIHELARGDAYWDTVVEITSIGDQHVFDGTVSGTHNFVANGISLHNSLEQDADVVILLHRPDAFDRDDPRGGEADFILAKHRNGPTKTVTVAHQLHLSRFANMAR
As to the kind of experiment: DnaB intein splicing inhibitors, dose response, biochemical, cell-free fluorescence (AID 449749). The class given is functional.

For test [5], the target named is T3, Protein RecA (Mycobacterium tuberculosis, UniProt P9WHJ3).
T3 sequence (P9WHJ3 whole entry): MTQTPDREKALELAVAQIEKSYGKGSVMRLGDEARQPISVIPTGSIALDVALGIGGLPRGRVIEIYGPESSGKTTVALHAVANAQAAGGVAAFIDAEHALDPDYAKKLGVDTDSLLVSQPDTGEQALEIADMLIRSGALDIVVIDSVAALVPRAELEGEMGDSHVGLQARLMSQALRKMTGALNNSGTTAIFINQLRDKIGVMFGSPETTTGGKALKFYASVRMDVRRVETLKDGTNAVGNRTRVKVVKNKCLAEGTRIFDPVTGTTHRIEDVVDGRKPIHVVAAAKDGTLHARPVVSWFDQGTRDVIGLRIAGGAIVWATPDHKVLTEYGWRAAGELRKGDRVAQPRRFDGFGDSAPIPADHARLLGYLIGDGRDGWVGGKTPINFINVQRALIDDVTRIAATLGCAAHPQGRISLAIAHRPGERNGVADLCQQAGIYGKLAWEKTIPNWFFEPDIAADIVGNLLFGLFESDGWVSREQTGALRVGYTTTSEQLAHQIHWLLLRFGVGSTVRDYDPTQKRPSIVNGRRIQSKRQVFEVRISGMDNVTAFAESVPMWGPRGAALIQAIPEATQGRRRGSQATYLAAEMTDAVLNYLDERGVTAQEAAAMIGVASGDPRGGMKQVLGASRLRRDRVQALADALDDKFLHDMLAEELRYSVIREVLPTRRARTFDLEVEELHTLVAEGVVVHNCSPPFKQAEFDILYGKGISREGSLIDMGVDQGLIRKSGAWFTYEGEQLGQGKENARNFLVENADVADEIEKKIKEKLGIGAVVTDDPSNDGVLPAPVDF
As to the kind of experiment: Fluorescence Cell-Free Homogeneous Dose Retest to Identify Inhibitors of RecA-Intein Splicing Activity. [Related pubchem assays (depositor defined):AID2097, AID2223, AID489010, AID492950]. In kind it is functional.

Test [6] deals with Cytochrome P450 2D6 (Homo sapiens, UniProt P10635).
Chain of Cytochrome P450 2D6 (P10635 whole entry): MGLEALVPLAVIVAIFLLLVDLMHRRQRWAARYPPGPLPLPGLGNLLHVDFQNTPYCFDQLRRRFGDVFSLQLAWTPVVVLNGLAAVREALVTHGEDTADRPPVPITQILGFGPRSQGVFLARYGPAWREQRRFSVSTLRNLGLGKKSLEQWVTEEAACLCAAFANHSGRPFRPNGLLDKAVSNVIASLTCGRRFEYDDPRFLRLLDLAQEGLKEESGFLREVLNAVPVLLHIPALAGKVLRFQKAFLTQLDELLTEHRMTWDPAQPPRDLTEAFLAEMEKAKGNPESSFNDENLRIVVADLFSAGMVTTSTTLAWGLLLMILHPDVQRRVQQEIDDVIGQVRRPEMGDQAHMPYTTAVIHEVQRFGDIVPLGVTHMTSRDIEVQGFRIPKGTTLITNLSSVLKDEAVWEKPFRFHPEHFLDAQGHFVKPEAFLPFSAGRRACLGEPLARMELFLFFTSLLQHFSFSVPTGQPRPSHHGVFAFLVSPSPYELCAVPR
Test [7] concerns the target Cytochrome P450 2C9 (Homo sapiens, UniProt P11712).
Test [8] relates to INS1. Kind of test: INS-1E survival protection against cytokine death – cell-based, luminescence, retest, dose response (AID 449756).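 Further: cell death triggered by IL-1 beta plus TNF-alpha plus IFN-gamma mixture; protective hits raise ATP signal compared with cytokine alone wells.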 The class given is functional. The conditions noted are these: Rattus norvegicus.
Test [9] deals with Cytochrome P450 2C19 (Homo sapiens, UniProt P33261). As to the kind of experiment: Cytochrome panel assay with activity outcomes. Panel member name: p450-cyp2c19 Compounds with AC50 equal or less than 10 uM are considered active. In kind it is functional. As to conditions: read-out: AC50.
Chain of Cytochrome P450 2C19 (P33261 whole entry): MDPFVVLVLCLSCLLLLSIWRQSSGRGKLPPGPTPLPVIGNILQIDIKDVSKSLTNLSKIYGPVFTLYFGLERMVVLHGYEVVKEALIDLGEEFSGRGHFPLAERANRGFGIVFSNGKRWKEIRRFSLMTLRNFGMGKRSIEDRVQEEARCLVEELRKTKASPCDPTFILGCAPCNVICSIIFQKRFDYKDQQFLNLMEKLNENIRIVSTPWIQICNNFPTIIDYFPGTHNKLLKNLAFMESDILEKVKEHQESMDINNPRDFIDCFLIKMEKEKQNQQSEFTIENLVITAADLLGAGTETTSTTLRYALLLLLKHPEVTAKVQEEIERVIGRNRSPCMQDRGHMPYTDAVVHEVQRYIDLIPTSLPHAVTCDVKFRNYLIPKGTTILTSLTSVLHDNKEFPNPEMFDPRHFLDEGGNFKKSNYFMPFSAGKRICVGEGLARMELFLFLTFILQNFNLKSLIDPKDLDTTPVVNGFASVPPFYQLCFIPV

Active and inactive are the calls of the source.

Chain of Cytochrome P450 2C9 (P11712 whole entry): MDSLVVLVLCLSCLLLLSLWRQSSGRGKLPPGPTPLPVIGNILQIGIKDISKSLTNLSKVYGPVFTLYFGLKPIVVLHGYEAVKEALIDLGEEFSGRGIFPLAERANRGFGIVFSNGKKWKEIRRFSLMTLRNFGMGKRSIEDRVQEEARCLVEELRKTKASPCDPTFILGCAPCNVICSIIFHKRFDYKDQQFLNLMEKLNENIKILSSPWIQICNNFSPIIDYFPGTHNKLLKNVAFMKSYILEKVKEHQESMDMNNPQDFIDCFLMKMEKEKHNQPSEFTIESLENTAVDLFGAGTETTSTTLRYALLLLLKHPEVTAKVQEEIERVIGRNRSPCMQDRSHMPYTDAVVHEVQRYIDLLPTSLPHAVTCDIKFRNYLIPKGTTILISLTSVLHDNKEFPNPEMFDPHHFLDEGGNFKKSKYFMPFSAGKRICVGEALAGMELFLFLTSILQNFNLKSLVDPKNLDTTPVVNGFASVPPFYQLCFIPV

`Cc1ccc(O)c(C(=O)c2cc(C(=O)NCCc3ccccc3)c(=O)n(CCc3ccccc3)c2)c1`: the EC50 in test [1] is 2.02 µM (active); in test [2] it was > 30 µM (not active).
With `CCOC(=O)c1cnc2ccc(C)cc2c1Sc1ccc(F)cc1`, the EC50 in test [3] was 11.2 µM (active); in [5] it was 2.95 µM (active). In test [4], the AC50 is 5.76 µM (active).
For the compound `CN1CCN(C(=O)/C(=C/c2cccnc2)NC(=O)c2cccc(Br)c2)CC1`, the EC50 in [3] is > 260 µM (inactive).
The same measure, in the same setting: the figure for `Nc1nnc(CSCc2ccccc2Cl)s1` is > 260 µM (inactive).
On to `O=C(NC1CCCC1)C(c1ccc(F)cc1)N(Cc1ccc(F)cc1)C(=O)c1cc[nH]n1` (configuration not stated), for which the results for the AC50 in test [6] and in test [7] were 25.1 µM (inconclusive) and 39.8 µM (inconclusive), respectively.
As for `CCN(CC)S(=O)(=O)c1ccc2oc(C(=O)NC3CCCc4ccccc43)c(C)c2c1` (configuration not stated), the half-maximal effective concentration (EC50) was 2.1 µM (active) in [1] and > 60 µM (not active) in test [2].
With `CC1CC(C)CN(C(=O)CCS(=O)(=O)c2ccc3c(c2)NC(=O)CS3)C1` (configuration not stated), in test [3], the EC50 is > 260 µM (inactive).
Consider `Cc1nnc2nc(SCC(=O)NCC3CCCO3)n(-c3ccc(Br)cc3)c(N)c1-2` (configuration not stated), for which the concentration at half-maximal activity (AC50) was 10 µM (inconclusive) in test [6] and 14.1 µM (inconclusive) in test [7].
As for `O=C(Nc1ccccc1)N1CCCN(c2ccc(C(F)(F)F)cc2[N+](=O)[O-])CC1`, the EC50 in test [3] is > 260 µM (inactive).
As for `CCc1cc2c3c(c1)C1(C(=O)N3C(C)(C)C=C2C)C(C#N)=C(N)Oc2nc(O)nc(O)c21` (configuration not stated), the AC50 in test [4] is 11 µM (active). Also, the EC50 in test [5] was 2.65 µM (active).
On the same counts, the results for `CS(=O)(=O)C1=NN2C(=N)/C(=C\c3ccc(OC(=O)c4ccco4)cc3)C(=O)N=C2S1` are > 380 µM (inactive) and 16.8 µM (active).
As for `CCc1cccc(Nc2c([N+](=O)[O-])nn(-c3ccc4c(c3)OCCO4)[n+]2[O-])c1`, the EC50 in test [1] is 0.272 µM (active); in test [2], > 60 µM (inconclusive).
With `Cc1ccccc1OCCNC(=O)c1ccccc1Sc1ccccc1C#N`, the half-maximal activity concentration (AC50) in test [6] is 25.1 µM (inconclusive); in [7], 28.2 µM (inconclusive).
On to `Cn1cc(C=O)c(-c2ccc3c(c2)OCCCO3)n1`, for which, in [3], the EC50 is > 260 µM (inactive).
On the same count and under the same terms, the figure for `Cc1cccc(C(C)C)c1NC(=O)COC(=O)c1cccc(S(=O)(=O)N2CCc3ccccc3C2)c1` is > 260 µM (inactive).
As to `Cc1ccc(N2C(=O)C(Cl)=C(NCc3ccccc3)C2=O)c(C)c1`, the AC50 in test [6] is 22.4 µM (inconclusive).
`O=C(NC(Nc1cc(C(F)(F)F)ccc1Cl)C(=O)c1ccccc1)c1ccccc1` (configuration not stated): the EC50 in [1] is 2.17 µM (active); in test [2], > 30 µM (not active).
On to `CC(C)(CC(=O)N1CCN(c2ccc(Cl)cc2)CC1)CC1=NS(=O)(=O)c2ccccc2N1`, for which the AC50 in test [6] is 3.16 µM (inconclusive).
Regarding `CCOc1ccc(NC(=S)N(Cc2ccc(Cl)cc2)Cc2ccco2)cc1`, the EC50 in test [3] is > 260 µM (inactive).
For the compound `CCCCCC1=C2CNC(CCC)(C(=O)OC)C=C2C(C)C1=O` (configuration not stated), the AC50 in test [6] was 12.6 µM (inconclusive).
Consider `O=C(NCc1cccnc1)c1cc(-c2ccco2)on1`, for which the AC50 in test [8] is 1.62 µM (active).
Turning to `CSc1c(-c2ccccc2)nc2ccccc2c1C(=O)O`, the results for the half-maximal activity concentration (AC50) in test [9] and in [6] were 10 µM (inconclusive) and 3.16 µM (inconclusive), respectively.
Consider `Cc1ccc(CN2CCN(CC(=O)N=Nc3c(O)[nH]c4ccccc34)CC2)cc1`, for which the EC50 in test [1] is 1.08 µM (active); in test [2] it was > 60 µM (not active).
As for `CCOc1cc(C2C(C#N)=C(N)Oc3[nH]nc(C)c32)ccc1OCCN1CCOCC1` (configuration not stated), the AC50 in [4] is 50.6 µM (active). Also, in [5], the EC50 was 4.45 µM (active).
`O=C1NC(=S)S/C1=C\c1nc2ccccc2[nH]1`: the AC50 in test [4] is > 380 µM (inactive). The EC50 in [5] was > 120 µM (inactive).
With `CCN1C(=O)CC(N2CCN(c3ccc(C(=O)c4ccccc4)cc3)CC2)C1=O` (configuration not stated), the EC50 in test [3] is > 260 µM (inactive).
On the same count and under the same terms, the figure for `O=C(NC1CCSc2ccccc21)c1ccccc1Cl` (configuration not stated) is > 260 µM (inactive).
Consider `FC(F)(F)c1ccccc1-c1cc(NCc2cccnc2)ncn1`, for which the AC50 in test [6] was 25.1 µM (inconclusive).
On to `CN(C)CCCn1c(N)c(C#N)c2nc(C#N)c(C#N)nc21`, for which the EC50 in test [3] is 58.3 µM (active).
With `O=C(CCNc1ccc(F)cc1)c1cc2ccccc2o1`, the EC50 in [1] is 1.12 µM (active); in test [2] it was > 60 µM (not active).
Consider `CCc1ccc(-c2cc(C(F)(F)F)n3nc(C(=O)Nc4cnn(Cc5ccc(C)cc5)c4)cc3n2)s1`, for which, in test [8], the AC50 was 3.63 µM (active).
In the case of `O=C(NC1CCCC1)c1ccc([N+](=O)[O-])s1`, the EC50 in [1] was 0.546 µM (active); in test [2], 5.25 µM (active).
Consider `CCOC(=O)c1c(N=C(S)N2CCOCC2)sc2c1CCN(C(=O)OCC)C2`, for which the AC50 in [4] was 5.25 µM (active). Moreover, the EC50 in test [5] was 20.1 µM (active).
`COc1cccc(N/C([S-])=C(/C(=O)c2ccc(C)c([N+](=O)[O-])c2)[n+]2ccccc2)c1`: in test [4], the AC50 is 13.3 µM (active). In addition, the EC50 in test [5] is 9.74 µM (active).
In the case of `NCCCc1ccc2oc3ccccc3c2c1`, the half-maximal activity concentration (AC50) in [9] was 7.94 µM (inconclusive); in test [6], 2.51 µM (inconclusive).
For the compound `COc1ccccc1NC(=O)CN1CCN(CC(=O)Nc2ccccc2Cl)CC1`, the EC50 in test [3] was > 260 µM (inactive).
With `C[C@H](CO)N1C[C@H](C)[C@@H](CN(C)C(=O)NC2CCCCC2)Oc2c(NC(=O)Nc3ccc(C(F)(F)F)cc3)cccc2C1=O`, in test [8], the AC50 was 27.7 µM (active).
`Oc1ccc(/C(Cc2ccc3ccccc3n2)=N\Nc2ccccc2)c(O)c1`: the AC50 in test [4] was 78.3 µM (active). In [5], the EC50 was 13.6 µM (active).
For the compound `O=C(N/N=C/c1ccc(-c2cccc([N+](=O)[O-])c2)o1)c1cccs1`, the EC50 in test [1] was 0.634 µM (active); in [2], > 60 µM (not active).
As for `O=C(N/N=C/c1cccnc1)c1ccccc1NS(=O)(=O)c1cccs1`, the AC50 in test [8] was > 260 µM (inactive).

As a reminder, the EC50 is the concentration giving half of the maximal effect. In general, AC50 refers to the concentration at which the activity in the assay is half-maximal.
